Data on 39 compounds can be found in patent US7776847B2, “Benzisothiazoles useful for treating or preventing HCV infection” (priority 2005, dated 2010).

The experiment concerns HCV replicon. The experiment in a line: HCV replicon luciferase reporter assay. It counts as cell-based. As to conditions: Hepatitis C virus, Table 5; read-out: IC50. As for the experimental part: The inhibitory activity of certain exemplary compounds of the invention was confirmed using an HCV replicon assay. The HCV replicon can include such features as the HCV IRES, the HCV 3′ untranslated region, selected HCV genes encoding HCV polypeptides, selectable markers, and a reporter gene such as luciferase, GFP, etc. In the assay, actively dividing replicon-comprising cells were seeded at a density of between about 5,000 and 7,500 cells/well onto 96 well plates (about 90 μl of cells per well) and incubated at 37° C. and 5% CO2 for 24 hours. Then, the test compound (in a volume of about 10 μL) was added at various concentrations to each well and the cells were incubated for an additional 24-48 hours. The cells were harvested, and HCV replication or translation was monitored via a reporter assay, e.g., a luciferase reporter assay. The media was aspirated from each cell and Bright-Glo ([…].) luciferase assay reagents were added to each well according to the manufacturer's instructions. In this assay, the amount of test compound that yielded a 50% reduction in luciferase activity (IC50) was determined.
`CC(C)NC(=O)c1ccc(C(=O)NCCNc2nsc3ccccc23)cc1` [Compound 426, N^1-(2-(benzo[d]isothiazol-3-ylamino)ethyl)-N^4-isopropylterephthalamide]: the IC50 was less than 5 µM. Under `Cc1ccc(-c2cccc(C(=O)NCCNc3nsc4ccccc34)c2)cc1C` [Compound 372, N-(2-(benzo[d]isothiazol-3-ylamino)ethyl)-3′,4′-dimethylbiphenyl-3-carboxamide] stands less than 5 µM; under `COc1cccc(CNCCCNc2nsc3ccccc23)c1` [Compound 343, N^1-(benzo[d]isothiazol-3-yl)-N^3-(3-methoxybenzyl)propane-1,3-diamine], less than 5 µM. Under `O=C(NCCCNc1nsc2ccccc12)c1ccc(OCc2ccncc2)cc1` [Entry 235, N-(3-(benzo[d]isothiazol-3-ylamino)propyl)-4-(pyridin-4-ylmethoxy)benzamide] stands less than 5 µM; under `COc1ccc(-c2ccc(CNCCCNc3nsc4ccc(Br)cc34)cc2)cc1` [Compound 404, N^1-(5-bromobenzo[d]isothiazol-3-yl)-N^3-((4′-methoxybiphenyl-4-yl)methyl)propane-1,3-diamine], less than 5 µM. Under `CCCCC(=O)Nc1ccc2sc(C(=O)NCCCNc3nsc4ccccc34)cc2c1` [Compound 456, N-(3-(benzo[d]isothiazol-3-ylamino)propyl)-5-pentanamidobenzo[b]thiophene-2-carboxamide] stands less than 5 µM; under `O=C(NCCNc1nsc2ccccc12)c1ccc(-c2ccccc2O)cc1` [Compound 385, N-(2-(benzo[d]isothiazol-3-ylamino)ethyl)-2′-hydroxybiphenyl-4-carboxamide], less than 5 µM. Consider `O=C(NCCCNc1nsc2ccccc12)Nc1ccc(I)cc1` [Compound 387, 1-(3-(benzo[d]isothiazol-3-ylamino)propyl)-3-(4-iodophenyl)urea], for which the IC50 is less than 5 µM. Under `COc1ccc(-c2ccc(CN(CCCNc3nsc4ccccc34)C(=O)CN3CCN(c4ccccc4)CC3)cc2)cc1` [Compound 256, N-(3-(benzo[d]isothiazol-3-ylamino)propyl)-N-((4′-methoxybiphenyl-4-yl)methyl)-2-(4-phenylpiperazin-1-yl)acetamide] stands less than 5 µM; under `COc1cccc(-c2ccc(C(=O)NCCNc3nsc4ccccc34)cc2)c1OC` [Compound 364, N-(2-(benzo[d]isothiazol-3-ylamino)ethyl)-2′,3′-dimethoxybiphenyl-4-carboxamide], less than 5 µM. Regarding `COc1cccc(S(=O)(=O)NCCCNc2nsc3ccccc23)c1` [Entry 220, N-(3-(benzo[d]isothiazol-3-ylamino)propyl)-3-methoxybenzenesulfonamide], the concentration for half-maximal inhibition (IC50) was less than 5 µM.

Turning to `COc1ccc2oc(C(=O)NCCCNc3nsc4ccccc34)cc2c1` [Compound 437, N-(3-(benzo[d]isothiazol-3-ylamino)propyl)-5-methoxybenzofuran-2-carboxamide], the IC50 was less than 5 µM. With `O=C(NCCNc1nsc2ccccc12)c1c(Cl)cccc1Cl` [Entry 41, N-(2-(Benzo[d]isothiazol-3-ylamino)ethyl)-2,6-dichlorobenzamide] the figure was greater than 5 µM; with `O=C(Cc1c[nH]c2ccccc12)NCCNc1nsc2ccccc12` [Entry 82, N-(2-(Benzo[d]isothiazol-3-ylamino)ethyl)-2-(1H-indol-3-yl)acetamide], greater than 5 µM; with `COc1ccc(-c2ccc(C(=O)NCCCNc3nsc4cccc(S(=O)(=O)NC(C)(C)C)c34)cc2)cc1` [Compound 398, N-(3-(4-(N-tert-butylsulfamoyl)benzo[d]isothiazol-3-ylamino)propyl)-4′-methoxybiphenyl-4-carboxamide], greater than 5 µM.

As to `CC(C)Nc1ccc(C(=O)NCCCNc2nsc3ccccc23)cc1` [Compound 298, N-(3-(benzo[d]isothiazol-3-ylamino)propyl)-4-(isopropylamino)benzamide], the IC50 was less than 5 µM.

In the case of `O=C(NCCCNc1nsc2ccccc12)c1cccc(-c2ccc(Cl)nc2)c1` [Compound 380, N-(3-(benzo[d]isothiazol-3-ylamino)propyl)-3-(6-chloropyridin-3-yl)benzamide], the half-inhibitory concentration (IC50) was less than 5 µM.

As to `O=C(NCCCNc1nsc2ccccc12)c1ccc(NCc2ccccn2)cc1` [Compound 297, N-(3-(benzo[d]isothiazol-3-ylamino)propyl)-4-(pyridin-2-ylmethylamino)benzamide], the IC50 was less than 5 µM. With `CCCCc1ccc(CNCCCNc2nsc3ccccc23)cc1` [Compound 288, N^1-(benzo[d]isothiazol-3-yl)-N^3-(4-butylbenzyl)propane-1,3-diamine] the figure was less than 5 µM. With `Brc1cccc(CNCCCNc2nsc3ccccc23)c1` [Compound 299, N^1-(benzo[d]isothiazol-3-yl)-N^3-(3-bromobenzyl)propane-1,3-diamine] the figure was less than 5 µM.

Turning to `COc1ccc(-c2ccc(CNCCCNC3=NS(=O)(=O)c4ccccc43)cc2)cc1` [Compound 324, N-(1,1-dioxido-1,2-benzisothiazol-3-yl)-N′-[(4′-methoxybiphenyl-4-yl)methyl]propane-1,3-diamine], the IC50 is greater than 5 µM. Under `COc1ccc(-c2ccc(C(=O)NCCNc3nsc4ccccc34)cc2)cc1OC` [Compound 361, N-(2-(benzo[d]isothiazol-3-ylamino)ethyl)-3′,4′-dimethoxybiphenyl-4-carboxamide] stands less than 5 µM; under `COc1ccc(-c2ccc(S(=O)(=O)NCCCNc3nsc4ccccc34)cc2)cc1` [Compound 331, N-(3-(benzo[d]isothiazol-3-ylamino)propyl)-4′-methoxybiphenyl-4-sulfonamide], less than 5 µM. In the case of `COc1ccccc1-c1ccc(NC(=O)NCCCNc2nsc3ccccc23)cc1` [Compound 395, 1-(3-(benzo[d]isothiazol-3-ylamino)propyl)-3-(2′-methoxybiphenyl-4-yl)urea], the IC50 is less than 5 µM.

In the case of `c1ccc2oc(CNCCCNc3nsc4ccccc34)cc2c1` [Compound 337, N^1-(benzo[d]isothiazol-3-yl)-N^3-(benzofuran-2-ylmethyl)propane-1,3-diamine], the IC50 was less than 5 µM.

In the case of `O=S(=O)(NCCCNc1nsc2ccccc12)c1ccc(I)cc1` [Compound 325, N-(3-(benzo[d]isothiazol-3-ylamino)propyl)-4-iodobenzenesulfonamide], the IC50 was less than 5 µM. As for `O=C(NCCNc1nsc2ccccc12)c1cc(-c2ccccc2)n[nH]1` [Compound 413, N-(2-(benzo[d]isothiazol-3-ylamino)ethyl)-3-phenyl-1H-pyrazole-5-carboxamide], the concentration for half-maximal inhibition (IC50) was greater than 5 µM. With `O=C(NCCNc1nsc2ccccc12)c1ccc(C(F)(F)F)c(F)c1` [Compound 355, N-(2-(benzo[d]isothiazol-3-ylamino)ethyl)-3-fluoro-4-(trifluoromethyl)benzamide] the figure was less than 5 µM; with `COc1ccc(-c2cccc(CNCCCNc3nsc4ccccc34)c2)cc1OC` [Compound 301, N^1-(benzo[d]isothiazol-3-yl)-N^3-((4′,5′-dimethoxybiphenyl-3-yl)methyl)propane-1,3-diamine], less than 5 µM.

In the case of `COc1ccc(-c2ccc(C(=O)NCCCNc3nsc4cc(S(=O)(=O)NC(C)(C)C)ccc34)cc2)cc1` [Compound 399, N-(3-(6-(N-tert-butylsulfamoyl)benzo[d]isothiazol-3-ylamino)propyl)-4′-methoxybiphenyl-4-carboxamide], the IC50 was greater than 5 µM. Under `CN(C)CCCNc1cccc(C(=O)NCCCNc2nsc3ccccc23)n1` [Compound 447, N-(3-(benzo[d]isothiazol-3-ylamino)propyl)-6-(3-(dimethylamino)propylamino)picolinamide] stands less than 5 µM; under `O=C(NCCNc1nsc2ccccc12)c1cccc(C(=O)NC2CC2)c1` [Compound 431, N^1-(2-(benzo[d]isothiazol-3-ylamino)ethyl)-N^3-cyclopropylisophthalamide], less than 5 µM; under `O=C(NCCNc1nsc2ccccc12)c1ccc2ccccc2n1` [Entry 79, N-(2-(Benzo[d]isothiazol-3-ylamino)ethyl)quinoline-2-carboxamide], greater than 5 µM. As to `CCCNc1ccc(C(=O)NCCCNc2nsc3ccccc23)cc1` [Compound 290, N-(3-(benzo[d]isothiazol-3-ylamino)propyl)-4-(propylamino)benzamide], the IC50 is less than 5 µM. Regarding `Cc1cccnc1C(=O)NCCNc1nsc2ccccc12` [Entry 76, N-(2-(Benzo[d]isothiazol-3-ylamino)ethyl)-3-methylpicolinamide], the IC50 was less than 5 µM. In the case of `O=C(NCCCNc1nsc2ccccc12)c1ccc(Br)nc1` [Compound 443, N-(3-(benzo[d]isothiazol-3-ylamino)propyl)-6-bromonicotinamide], the IC50 was less than 5 µM. With `COc1ccc(-c2ccc(C(=O)NCCCNc3nsc4cc(S(N)(=O)=O)ccc34)cc2)cc1` [Compound 402, 4′-methoxy-N-(3-(6-sulfamoylbenzo[d]isothiazol-3-ylamino)propyl)biphenyl-4-carboxamide], the IC50 is less than 5 µM. Under `N#Cc1ccc(NCCCNc2nsc3ccccc23)nc1` [Entry 224, 6-(3-(benzo[d]isothiazol-3-ylamino)propylamino)pyridine-3-carbonitrile] stands less than 5 µM. For `O=C(NCCNc1nsc2ccccc12)c1cccc(Cl)c1` [Entry 33, N-(2-(Benzo[d]isothiazol-3-ylamino)ethyl)-3-chlorobenzamide], the IC50 was greater than 5 µM.
